According to ChEMBL document CHEMBL6103674, “Xiapyrroles A-F: N-Alkylpyrrole Alkaloids from the Marine-Derived Actinomycete Streptomyces xiamenensis 1310KO-148” (J Nat Prod, 2025):
Values belong to the compound of their own block, whether it stands above or below them. Activity calls are given as the source filed them. The calls are words filed in the database; no cut-off is given here.

What was measured:
RAW264.7 [1] = test: Cytotoxicity against LPS-induced mouse RAW264.7 cells assessed as reduction in cell viability at 30 uM measured after 24 hrs by XTT assay; assay type: toxicity, cell-based; details: raw264.7, 24 h
K562 = test: Cytotoxicity against human K562 cells at 30 uM; assay type: functional, cell-based
RPMI-1788 = test: Cytotoxicity against human RPMI-1788 cells at 30 uM; assay type: functional, cell-based
HCT-15 = test: Cytotoxicity against human HCT-15 cells at 30 uM; assay type: functional, cell-based
RPMI 8402 = test: Cytotoxicity against human RPMI 8402 cells at 30 uM; assay type: functional, cell-based
Raji = test: Cytotoxicity against human Raji cells at 30 uM; assay type: functional, cell-based
RAW264.7 [2] = test: Anti-inflammatory activity in LPS-induced mouse RAW264.7 cells assessed as suppression of IL-6 level pretreated for 1 hr followed by LPS addition and measured after 24 hrs by ELISA method; assay type: functional, cell-based
HL-60 = test: Cytotoxicity against human HL-60 cells at 30 uM; assay type: functional, cell-based
PC-3 = test: Cytotoxicity against human PC-3 cells at 30 uM; assay type: functional, cell-based
NUGC-3 = test: Cytotoxicity against human NUGC-3 cells at 30 uM; assay type: functional, cell-based
ACHN = test: Cytotoxicity against human ACHN cells at 30 uM; assay type: functional, cell-based
RAW264.7 [3] = test: Anti-inflammatory activity against mouse RAW264.7 cells assessed as inhibition of LPS-induced iNOS mRNA level pretreated for 1 hr followed by induced with LPS measured after 6 hrs by quantitative RT-PCR analysis; assay type: functional, cell-based; details: dose 1-30 µM, time 7.0 hrs
MDA-MB-231 = test: Cytotoxicity against human MDA-MB-231 cells at 30 uM; assay type: functional, cell-based
WSUDLCL2 = test: Cytotoxicity against human WSUDLCL2 cells at 30 uM; assay type: functional, cell-based
NCI-H23 = test: Cytotoxicity against human NCI-H23 cells at 30 uM; assay type: functional, cell-based
RAW264.7 [4] = test: Anti-inflammatory activity in LPS-induced mouse RAW264.7 cells assessed as suppression of NO production at 30 uM pretreated for 1 hr followed by LPS addition and measured after 24 hrs by Griess reagent based assay; assay type: functional, cell-based; details: time 25.0 hrs
RAW264.7 [5] = test: Anti-inflammatory activity in LPS-induced mouse RAW264.7 cells assessed as suppression of NO production pretreated for 1 hr followed by LPS addition and measured after 24 hrs by Griess reagent based assay; assay type: functional, cell-based
NALM-6 = test: Cytotoxicity against human NALM-6 cells at 30 uM; assay type: functional, cell-based
RAW264.7 [6] = test: Anti-inflammatory activity against mouse RAW264.7 cells assessed as inhibition of LPS-induced IL-6 mRNA level pretreated for 1 hr followed by induced with LPS measured after 6 hrs by quantitative RT-PCR analysis; assay type: functional, cell-based; details: dose 1-30 µM, time 7.0 hrs
U-266 = test: Cytotoxicity against human U-266 cells at 30 uM; assay type: functional, cell-based

SMILES: CO[C@@]1(C)C=C(C)C(=O)N1CCc1ccc(O)cc1
Activity (RAW264.7 [1]): Non-toxic

SMILES: CO[C@@]1(C)C=C(C)C(=O)N1CC(=O)c1ccccc1
Activity (RAW264.7 [1]): Non-toxic

SMILES: CC1=C[C@@](C)(O)N(CCc2ccc(O)cc2)C1=O
Activity (RAW264.7 [1]): Non-toxic

SMILES: Cc1cc(C)n(CCc2ccc(O)cc2)c1C=O
Activity (RAW264.7 [1]): Non-toxic

SMILES: CC(=O)N(O)CCCn1c(C)cc(C)c1C(=O)[C@@H](O)CO
Activity (RAW264.7 [1]): Non-toxic

IC50 (RAW264.7 [2]): 10.9 µM
IC50 (RAW264.7 [5]): 29.5 µM
SMILES: C=C1C=C(C)C(=O)N1CCc1ccc(O)cc1
Activity (K562): inactive
Activity (RPMI-1788): inactive
Activity (HCT-15): inactive
Activity (RPMI 8402): inactive
Activity (Raji): inactive
Activity (RAW264.7 [2]; time 25.0 hrs): Dose-dependent-effect
Activity (HL-60): inactive
Activity (PC-3): inactive
Activity (NUGC-3): inactive
Activity (ACHN): inactive
inhibition (RAW264.7 [3]): Dose-dependent-effect
Activity (MDA-MB-231): inactive
Activity (RAW264.7 [1]): Non-toxic
Activity (WSUDLCL2): inactive
Activity (NCI-H23): inactive
Activity (RAW264.7 [4]): Active
Activity (RAW264.7 [5]; time 25.0 hrs): Dose-dependent-effect
Activity (NALM-6): inactive
inhibition (RAW264.7 [6]): Dose-dependent-effect
Activity (U-266): inactive
